The text below walks through data of patent US20070202158A1, “Methods Of Administering Water-Soluble Prodrugs Of Propofol For Extended Sedation” (MGI GP, Inc., priority 2003, published 2007).

This series concerns Sprague-Dawley rats. Nature of the series: Behavioral sedation rating (scale 0-4) in rats after oral, intravenous or intraduodenal prodrug. The series is classed as in vivo, rat. An excerpt: This example compares the dose-dependent pharmacological effects of a propofol prodrug of Formula I, O-phosphonooxymethyl propofol disodium salt, on rats when administered in a single oral dose to the pharmacological effects observed after an equipotent intravenous infusion. Young adult male Sprague-Dawley rats (250-300 g, Charles River Laboratories) received oral doses of vehicle (0.12% Tris/0.25% monothioglycerol/saline; n=4, per oral gavage) or of O-phosphonooxy-methyl propofol disodium salt at doses of 100, 200, 300 and 400 mg/kg, dissolved in vehicle at 35 mg/ml (n=2 per dose) or 200 mg/ml w/v (n=2 per dose).
The above-described pharmacological effects of oral administration of the tested prodrug were compared with those caused by an equipotent intravenous infusion: Under halothane anesthesia, young adult rats received femoral vein catheters which were exteriorized and attached to a liquid swivel via a protectant spring. About 20 minutes after catheterization, and after full behavioral recovery from halothane anesthesia, each animal was attached to an electronic infusion pump and was administered vehicle, or 5, 10, 20, 30, or 40 mg/kg of the test prodrug (n=2 per dose) in 1 ml total volume by gradual constant-rate intravenous infusion over 10 minutes. Behavioral rating as described above began immediately following the end of infusion.
The above-described efficacy of the tested prodrug when administered orally or intravenously was compared to a mode of administration that allows for the introduction of the prodrug directly into the gut. For this “gastric bypass” experiment, young adult male Sprague Dawley rats (225-250 g body wt.) underwent implantation of intraduodenal catheters to allow for intraduodenal instillation of an aqueous buffered solution of the prodrug. Following full recovery from catheter implantation surgery, various concentrations of O-phosphonooxymethyl propofol disodium salt in vehicle, or vehicle alone, were administered via the catheter in a constant volume of 2 ml/kg body weight to yield doses of 0, 20, 30, 50, 100, 200, 300, and 400 mg/kg body weight (n=2 per dose). Behavioral assessment was conducted as described above. […] The depth and duration of sedation, and the length of unconsciousness in the higher dose groups, depended on the administered dose.

As for `CC(C)c1cccc(C(C)C)c1OCOP(=O)([O-])[O-].[Na+].[Na+]` [O-phosphonooxymethyl propofol disodium salt], the “biological potency of the peak effect, oral/intragastric relative to intravenous administration” value was “approximately 10%”. Moreover, the “intraduodenal dose causing a pharmacological effect substantially similar to 40 mg/kg intravenous” value (FIG. 3 vs 4) came to 50 mg/kg. The “intraduodenal dose causing a pharmacological effect substantially similar to 400 mg/kg intragastrally” value (FIGS. 1, 2 vs 4) was 100 mg/kg. The “intraduodenal dose expected to cause an effect substantially similar to IV 20-30 mg/kg” value (extrapolated from FIGS. 1-4) is “about 40 mg/kg”. Besides, the “onset of sedative effect” value (intraduodenal 20-400 mg/kg) was “Within five minutes”. Under “intraduodenal, higher dose groups”, the “behavioral effect following onset of sedation” value is on record as “loss of consciousness in the higher dose groups”. For the same compound, where the note is “intravenous infusion 5-40 mg/kg over 10 minutes”, the behavioral effect entry was “rapid-onset dose-dependent sedated/anesthetized state”. Also, the “duration of sedated/anesthetized state” value (intravenous vs oral administration) is “shorter durations as compared to oral administration”. Under “oral”, the “oral bioavailability (conclusion of study)” value is “orally bioavaliable”. Further, the “behavioral effect compared to vehicle” value (oral 100-200 mg/kg) is “mild to moderate sedation”. Besides, for the setting “oral 100-200 mg/kg, printed 'and longer'”, the “duration of mild to moderate sedation” value lay in the range of 1 to 2 h. Further, the “behavioral effect following onset of sedation” value (oral 300 and 400 mg/kg dose groups) was “loss of consciousness”. Further, the “onset of sedated behavior after dosing” value (oral gavage 100-400 mg/kg) lay in the range of 5 to 10 min. The “duration of loss of consciousness” value (oral, highest dose group) was “up to 1 hour”. Moreover, for the setting “oral/intragastric, 35 mg/ml w/v aqueous solution, FIG. 1”, the “onset of sedated behavior after oral gavage” value lay within 5 to 20 min.
